Test results reported in ChEMBL document CHEMBL5465560, “Selectivity Literature for EUbOPEN Chemogenomic Library” (2024).
One block for each compound: values may come before it.

Legend:
[1] = target: T1, Serine/threonine-protein kinase Sgk2 (Homo sapiens) (UniProt Q9HBY8); experiment: Selectivity interaction (Kinase panel (Z-LYTE Assay)) EUB0001632a SGK2; settings: at 10 µM
T1 sequence (whole entry): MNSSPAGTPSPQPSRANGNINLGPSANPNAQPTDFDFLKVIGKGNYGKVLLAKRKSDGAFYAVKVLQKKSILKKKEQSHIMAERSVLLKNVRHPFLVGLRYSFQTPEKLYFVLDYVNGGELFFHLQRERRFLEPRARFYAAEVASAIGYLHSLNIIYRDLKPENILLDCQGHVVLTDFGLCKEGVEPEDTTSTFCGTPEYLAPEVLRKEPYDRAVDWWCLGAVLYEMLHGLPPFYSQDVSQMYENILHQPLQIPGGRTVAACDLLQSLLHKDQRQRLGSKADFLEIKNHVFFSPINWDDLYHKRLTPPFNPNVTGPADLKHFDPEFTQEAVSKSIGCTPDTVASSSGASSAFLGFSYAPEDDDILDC

[2] = target: T2, Cytoplasmic tyrosine-protein kinase BMX (Homo sapiens) (UniProt P51813); experiment: Selectivity interaction (KinomeScan (DiscoverX)) EUB0000607a BMX; settings: at 10 µM
T2 sequence (whole entry): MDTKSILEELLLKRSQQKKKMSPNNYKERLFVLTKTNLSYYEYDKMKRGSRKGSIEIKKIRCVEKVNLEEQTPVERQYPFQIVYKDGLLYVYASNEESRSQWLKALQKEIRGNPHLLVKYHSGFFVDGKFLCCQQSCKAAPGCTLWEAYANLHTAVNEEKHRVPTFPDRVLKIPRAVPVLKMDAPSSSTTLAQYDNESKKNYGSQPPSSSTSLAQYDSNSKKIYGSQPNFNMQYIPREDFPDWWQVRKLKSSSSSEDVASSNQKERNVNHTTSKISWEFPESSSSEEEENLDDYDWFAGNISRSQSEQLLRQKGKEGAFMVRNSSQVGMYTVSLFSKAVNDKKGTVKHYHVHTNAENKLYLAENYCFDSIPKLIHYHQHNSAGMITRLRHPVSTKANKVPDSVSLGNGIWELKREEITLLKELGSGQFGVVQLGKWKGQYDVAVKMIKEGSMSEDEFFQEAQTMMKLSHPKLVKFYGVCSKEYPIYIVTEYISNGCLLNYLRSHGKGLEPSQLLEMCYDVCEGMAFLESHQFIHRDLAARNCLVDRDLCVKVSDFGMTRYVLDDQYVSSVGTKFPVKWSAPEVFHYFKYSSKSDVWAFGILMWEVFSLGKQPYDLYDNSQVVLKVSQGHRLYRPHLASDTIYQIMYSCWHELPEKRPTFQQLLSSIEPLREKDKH

[3] = target: Tyrosine-protein kinase SYK (Homo sapiens, UniProt P43405); experiment: Selectivity interaction (Kinase panel (Invitrogen)) EUB0000639a SYK; settings: at 200 nM
[4] = target: Tyrosine-protein kinase Fgr (Homo sapiens) (UniProt P09769); experiment: Selectivity interaction (KinomeScan (DiscoverX)) EUB0000695a FGR; settings: at 100 nM
Sequence of Tyrosine-protein kinase Fgr (Homo sapiens) (P09769 2-529 limits assumed): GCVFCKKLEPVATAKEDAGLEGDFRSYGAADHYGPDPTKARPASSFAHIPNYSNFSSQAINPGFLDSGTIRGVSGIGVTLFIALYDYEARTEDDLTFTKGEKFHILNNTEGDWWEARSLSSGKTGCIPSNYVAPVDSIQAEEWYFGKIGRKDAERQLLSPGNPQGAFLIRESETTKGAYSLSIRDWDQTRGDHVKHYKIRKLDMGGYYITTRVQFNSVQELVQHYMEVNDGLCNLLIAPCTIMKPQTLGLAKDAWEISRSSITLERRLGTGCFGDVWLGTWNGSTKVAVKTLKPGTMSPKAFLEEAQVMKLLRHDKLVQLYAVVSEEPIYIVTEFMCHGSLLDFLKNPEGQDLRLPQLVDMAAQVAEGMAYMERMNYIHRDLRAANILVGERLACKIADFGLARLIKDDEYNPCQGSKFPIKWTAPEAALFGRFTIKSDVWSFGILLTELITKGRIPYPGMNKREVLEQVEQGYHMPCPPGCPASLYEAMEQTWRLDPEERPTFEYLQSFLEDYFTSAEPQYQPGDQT

[5] = target: Serine/threonine-protein kinase WNK3 (Homo sapiens) (UniProt Q9BYP7); experiment: Selectivity interaction (KinomeScan (DiscoverX)) EUB0001049a WNK3; settings: at 1 µM
Sequence of Serine/threonine-protein kinase WNK3 (Homo sapiens) (Q9BYP7 whole entry): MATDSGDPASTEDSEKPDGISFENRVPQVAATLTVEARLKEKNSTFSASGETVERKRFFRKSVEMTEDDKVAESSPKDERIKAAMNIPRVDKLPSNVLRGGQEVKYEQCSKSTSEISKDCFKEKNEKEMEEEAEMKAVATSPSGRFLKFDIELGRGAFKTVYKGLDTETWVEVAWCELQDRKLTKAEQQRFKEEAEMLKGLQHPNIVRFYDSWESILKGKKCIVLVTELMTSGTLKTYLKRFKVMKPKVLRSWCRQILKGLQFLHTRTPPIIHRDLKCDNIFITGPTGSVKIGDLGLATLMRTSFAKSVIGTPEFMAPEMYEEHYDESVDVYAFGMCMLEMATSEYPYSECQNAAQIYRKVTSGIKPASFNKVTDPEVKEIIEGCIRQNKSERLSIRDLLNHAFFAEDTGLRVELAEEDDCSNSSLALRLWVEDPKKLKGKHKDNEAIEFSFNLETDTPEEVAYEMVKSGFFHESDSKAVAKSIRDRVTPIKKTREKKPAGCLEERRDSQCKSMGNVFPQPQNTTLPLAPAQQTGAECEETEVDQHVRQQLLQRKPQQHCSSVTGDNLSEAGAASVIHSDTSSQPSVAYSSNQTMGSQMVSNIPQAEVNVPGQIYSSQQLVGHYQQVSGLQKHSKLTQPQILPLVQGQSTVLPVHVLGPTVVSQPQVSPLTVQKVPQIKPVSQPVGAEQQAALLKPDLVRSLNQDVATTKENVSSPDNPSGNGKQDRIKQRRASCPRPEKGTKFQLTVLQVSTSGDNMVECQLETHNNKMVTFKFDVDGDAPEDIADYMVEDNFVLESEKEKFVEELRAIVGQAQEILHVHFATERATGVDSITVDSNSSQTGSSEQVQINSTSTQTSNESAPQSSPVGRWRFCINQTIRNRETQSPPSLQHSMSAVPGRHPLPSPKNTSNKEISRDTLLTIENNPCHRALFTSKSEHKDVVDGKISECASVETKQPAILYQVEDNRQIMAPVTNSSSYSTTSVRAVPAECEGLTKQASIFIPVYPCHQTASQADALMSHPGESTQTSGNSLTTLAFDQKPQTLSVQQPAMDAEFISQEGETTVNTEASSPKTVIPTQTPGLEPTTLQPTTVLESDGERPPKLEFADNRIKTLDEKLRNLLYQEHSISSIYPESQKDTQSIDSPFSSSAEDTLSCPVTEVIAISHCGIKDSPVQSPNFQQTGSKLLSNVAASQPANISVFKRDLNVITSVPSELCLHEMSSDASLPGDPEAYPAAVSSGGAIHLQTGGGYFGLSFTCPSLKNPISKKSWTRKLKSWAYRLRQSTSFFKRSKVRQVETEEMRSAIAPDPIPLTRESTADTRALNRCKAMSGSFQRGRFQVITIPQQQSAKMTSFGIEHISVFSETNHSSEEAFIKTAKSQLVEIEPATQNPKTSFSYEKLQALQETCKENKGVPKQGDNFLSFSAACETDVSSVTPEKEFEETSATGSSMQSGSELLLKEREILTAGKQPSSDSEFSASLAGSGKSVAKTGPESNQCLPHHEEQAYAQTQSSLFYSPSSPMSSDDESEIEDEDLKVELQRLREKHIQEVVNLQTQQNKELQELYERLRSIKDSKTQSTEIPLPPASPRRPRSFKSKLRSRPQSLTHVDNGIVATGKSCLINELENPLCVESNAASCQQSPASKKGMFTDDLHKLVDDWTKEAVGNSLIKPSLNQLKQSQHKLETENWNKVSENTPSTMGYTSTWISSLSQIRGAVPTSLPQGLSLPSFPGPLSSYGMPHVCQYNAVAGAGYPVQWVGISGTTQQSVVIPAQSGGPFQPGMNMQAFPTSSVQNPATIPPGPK

[6] = target: Vascular endothelial growth factor receptor 2 (Homo sapiens, UniProt P35968); experiment: Selectivity interaction (KinomeScan (DiscoverX)) EUB0000045b KDR
Sequence of Vascular endothelial growth factor receptor 2 (P35968 whole entry): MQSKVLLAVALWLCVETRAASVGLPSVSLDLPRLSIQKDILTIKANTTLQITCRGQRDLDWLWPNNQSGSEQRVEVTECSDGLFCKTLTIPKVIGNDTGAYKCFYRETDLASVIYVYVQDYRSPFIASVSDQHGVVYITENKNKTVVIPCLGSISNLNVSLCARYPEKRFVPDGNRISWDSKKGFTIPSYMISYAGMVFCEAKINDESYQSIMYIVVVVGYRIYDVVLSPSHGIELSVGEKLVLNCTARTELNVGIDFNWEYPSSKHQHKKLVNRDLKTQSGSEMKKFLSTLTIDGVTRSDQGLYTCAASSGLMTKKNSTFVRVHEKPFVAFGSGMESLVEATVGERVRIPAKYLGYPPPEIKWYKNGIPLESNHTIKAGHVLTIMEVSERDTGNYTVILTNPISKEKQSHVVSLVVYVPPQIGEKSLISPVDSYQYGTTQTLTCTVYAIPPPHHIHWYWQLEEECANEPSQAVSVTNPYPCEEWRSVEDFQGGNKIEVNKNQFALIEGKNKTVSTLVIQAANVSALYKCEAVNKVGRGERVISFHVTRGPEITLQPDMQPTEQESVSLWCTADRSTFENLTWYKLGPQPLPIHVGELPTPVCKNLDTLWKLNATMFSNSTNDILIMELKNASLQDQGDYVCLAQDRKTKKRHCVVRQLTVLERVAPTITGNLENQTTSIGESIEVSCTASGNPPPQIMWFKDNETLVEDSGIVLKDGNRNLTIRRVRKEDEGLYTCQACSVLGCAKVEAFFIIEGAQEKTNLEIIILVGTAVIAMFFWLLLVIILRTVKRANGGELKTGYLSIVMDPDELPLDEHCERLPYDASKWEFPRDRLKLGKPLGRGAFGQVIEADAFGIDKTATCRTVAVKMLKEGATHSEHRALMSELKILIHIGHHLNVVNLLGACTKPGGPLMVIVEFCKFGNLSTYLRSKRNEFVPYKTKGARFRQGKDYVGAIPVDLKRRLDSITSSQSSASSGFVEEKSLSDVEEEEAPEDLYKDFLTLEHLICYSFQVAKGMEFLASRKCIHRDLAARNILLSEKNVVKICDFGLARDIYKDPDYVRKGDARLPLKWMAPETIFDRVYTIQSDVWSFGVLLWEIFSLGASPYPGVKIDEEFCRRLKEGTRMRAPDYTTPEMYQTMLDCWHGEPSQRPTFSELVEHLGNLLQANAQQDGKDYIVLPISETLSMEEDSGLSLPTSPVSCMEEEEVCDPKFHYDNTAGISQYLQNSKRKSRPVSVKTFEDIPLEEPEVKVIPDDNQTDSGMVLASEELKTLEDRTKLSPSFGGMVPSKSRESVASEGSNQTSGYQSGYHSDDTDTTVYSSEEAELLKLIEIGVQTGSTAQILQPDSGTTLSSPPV

[7] = target: T3, Histone-arginine methyltransferase CARM1 (Homo sapiens) (UniProt Q86X55); settings: at 10 µM
T3 sequence (whole entry): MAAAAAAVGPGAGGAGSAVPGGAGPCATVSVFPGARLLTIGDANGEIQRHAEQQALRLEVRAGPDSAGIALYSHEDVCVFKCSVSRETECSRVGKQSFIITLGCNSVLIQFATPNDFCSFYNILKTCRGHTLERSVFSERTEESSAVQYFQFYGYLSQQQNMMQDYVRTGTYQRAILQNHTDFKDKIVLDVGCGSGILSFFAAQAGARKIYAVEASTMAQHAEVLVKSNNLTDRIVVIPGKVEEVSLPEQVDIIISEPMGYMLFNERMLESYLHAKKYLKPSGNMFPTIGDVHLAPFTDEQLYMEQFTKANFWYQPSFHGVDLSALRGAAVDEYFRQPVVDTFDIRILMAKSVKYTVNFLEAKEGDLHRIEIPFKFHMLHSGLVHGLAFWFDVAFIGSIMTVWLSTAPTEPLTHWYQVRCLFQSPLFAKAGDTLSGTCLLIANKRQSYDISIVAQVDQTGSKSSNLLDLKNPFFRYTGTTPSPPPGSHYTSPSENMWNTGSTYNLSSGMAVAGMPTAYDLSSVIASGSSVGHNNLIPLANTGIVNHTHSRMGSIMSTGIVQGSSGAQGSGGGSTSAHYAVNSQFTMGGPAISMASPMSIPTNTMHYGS

[8] = target: Tyrosine-protein kinase JAK1 (Homo sapiens, UniProt P23458); experiment: Selectivity interaction (Kinase panel (KiNativ target engagement assay in Jurkat cells)) EUB0001635a JAK1; type: cell-based; settings: Selectivity number of off-targets 0.0, Selectivity number of targets 233.0, Source Knowledge https://www.sciencedirect.com/science/article/pii/S2451945619300674?via%3Dihub, at 1 µM
Sequence of Tyrosine-protein kinase JAK1 (P23458 whole entry): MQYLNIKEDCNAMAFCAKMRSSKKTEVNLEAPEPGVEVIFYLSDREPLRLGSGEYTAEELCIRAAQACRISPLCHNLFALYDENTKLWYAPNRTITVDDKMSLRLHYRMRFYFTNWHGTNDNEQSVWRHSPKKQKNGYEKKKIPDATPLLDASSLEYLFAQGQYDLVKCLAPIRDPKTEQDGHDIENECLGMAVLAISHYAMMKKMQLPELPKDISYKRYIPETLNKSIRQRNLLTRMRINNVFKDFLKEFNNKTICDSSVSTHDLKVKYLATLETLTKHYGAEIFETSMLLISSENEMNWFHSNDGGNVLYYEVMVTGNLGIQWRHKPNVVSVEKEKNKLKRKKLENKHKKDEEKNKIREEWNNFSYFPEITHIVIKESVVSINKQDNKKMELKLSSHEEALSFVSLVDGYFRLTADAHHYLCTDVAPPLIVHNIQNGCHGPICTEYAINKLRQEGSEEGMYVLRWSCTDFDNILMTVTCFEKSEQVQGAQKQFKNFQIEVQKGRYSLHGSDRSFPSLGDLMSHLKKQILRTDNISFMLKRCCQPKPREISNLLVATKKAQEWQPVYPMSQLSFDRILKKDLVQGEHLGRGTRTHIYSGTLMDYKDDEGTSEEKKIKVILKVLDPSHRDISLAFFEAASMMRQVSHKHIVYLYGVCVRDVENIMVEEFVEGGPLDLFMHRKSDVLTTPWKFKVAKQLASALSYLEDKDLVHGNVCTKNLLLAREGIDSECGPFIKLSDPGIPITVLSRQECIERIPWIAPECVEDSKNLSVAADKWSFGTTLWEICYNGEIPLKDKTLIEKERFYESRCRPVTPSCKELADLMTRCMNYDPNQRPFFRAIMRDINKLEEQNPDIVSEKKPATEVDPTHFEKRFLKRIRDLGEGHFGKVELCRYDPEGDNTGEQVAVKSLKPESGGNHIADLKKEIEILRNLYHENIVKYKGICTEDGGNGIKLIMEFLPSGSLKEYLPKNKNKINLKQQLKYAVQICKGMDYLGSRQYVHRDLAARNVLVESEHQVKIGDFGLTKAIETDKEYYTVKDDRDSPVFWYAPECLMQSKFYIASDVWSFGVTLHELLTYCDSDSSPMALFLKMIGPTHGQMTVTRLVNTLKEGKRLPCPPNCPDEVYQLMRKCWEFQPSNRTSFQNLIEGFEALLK

% of control [1]: 8.85%
Structure (SMILES): Cn1cc(-n2cnc3c(NCc4nc5cc(Cl)c(Cl)cc5[nH]4)nc(N4CCOCC4)nc32)cn1

Structure (SMILES): CNC(=O)Nc1ccc(-c2nc(N3CC4CCC(C3)O4)c3cnn(C4CCC5(CC4)OCCO5)c3n2)cc1
% of control [2]: 83%

% of inhibition [3]: 9.07%
Structure (SMILES): CC[C@@H]1[C@H](F)C(=O)N[C@@H]1COc1nccc2cc(C(N)=O)c(OC)cc12 [ZIMLOVISERTIB]

Structure (SMILES): Cc1cc(F)c(C(=O)Nc2cccc(-c3nncn3C(C)C)n2)cc1-n1cnc(C2CC2)c1
% of control [4]: 96%

Structure (SMILES): COc1cc(Nc2nc(C)cc(-c3cnn4nc(OC)ccc34)n2)cc(C(F)(F)F)c1
% of control [5]: 81%

Structure (SMILES): C=CC(=O)Nc1cc(-n2c(=O)ccc3cnc4ccc(-c5ccc(NS(C)(=O)=O)cc5)cc4c32)ccc1C
% of control ([6]; at 1 µM): 97%
% of control ([6]; at 10 µM): 100%

% activity [7]: 1%
Structure (SMILES): CNCCN1CCC(c2cc(CN(C)C(=O)c3cccc(Oc4ccccc4)c3)ccn2)CC1

Structure (SMILES): C=CC(=O)Nc1ccc(C(=O)Nc2[nH]nc3c2CN(C(=O)N[C@H](CN(C)C)c2ccccc2)C3(C)C)cc1
% of engagement [8]: 11.1%
